≈ marks a conversion by molar mass, not a printed value. Where two headings read alike, the source gives them in different places.
Experiments:
[1] = Thermodynamic Equilibrium Aqueous Solubility Assay; format: physicochemical; details: thermodynamic from solid
Description: Standards Preparation: The calibration standard was prepared by accurately weighing 0.5-0.7 mg of sample in 5 ml of methanol. If the material was not fully soluble in methanol, other solvents such as DMSO or mixed solvents were used.
Test Sample Preparation: An excess amount of powder prodrug was equilibrated with 1 mL of buffer (50 mM potassium phosphate, pH 6.5 and 50 mM sodium acetate, pH 4.0) in a 2 mL glass vial. The solution was sonicated and vortexed for ˜30 seconds. The vials were shaken at 300 rpm at room temperature for 24 hrs. The exact incubation time for a specific prodrug was based on the prior aqueous stability data. If the compound was stable in the buffer up to 24 hrs, then the solubility was measured after 24 hrs, otherwise kinetic solubility data was reported. The final saturated solution was then transferred to a 1.5 mL Eppendorf tube and centrifuged for ˜2 min. at 10000 rpms. The supernatant from the saturated solution was transferred to a glass HPLC vial and the solubility was analyzed by HPLC using a four point calibration curve.

Solution Stability Assay = format: physicochemical
Description: Acetonitrile Stock Solution: Acetonitrile Stock Solution of the prodrug was prepared by dissolving 1.5-2.0 mg of weighted compound in 5.0 mL of acetonitrile in a 5 mL volumetric flask.
pH 6.5 Buffer Working Solution: A pH 6.5 Buffer Working Solution of drug was prepared by adding 1.5 mL of the Acetonitrile Stock Solution to 3.5 mL of stability buffer (50 mM potassium phosphate, pH 6.5) in a 10 mL vial, and mixing. Using a 3 mL syringe, ˜3 mL of solution was withdrawn and filtered using the Gelman 0.45 μm syringe filter into a clean 1.5 mL LC vial. This filtered solution will was used to evaluate the prodrug degradation throughout the course of the study. Target concentration: 90-120 μg/mL (70% Aqueous: 30% Acetonitrile)
pH 4.0 Acidic Working Solution: A pH 4.0 Working Solution of drug was prepared by adding 1.5 mL of the Acetonitrile Stock Solution to 3.5 mL of stability buffer (50 mM sodium acetate, pH 4.0) in a 10 mL vial and mixing. Using a 3 mL syringe, ˜3 mL of solution was withdrawn and filtered using the Gelman 0.45 μm syringe filter into a clean 1.5 mL LC vial. This filtered solution was used to evaluate the prodrug degradation throughout the course of the study. Target concentration: 90-120 μg/mL (70% Aqueous: 30% Acetonitrile)
Experimental Methods: Following the sample preparation procedure described above a single sample (n=1) was prepared for each pH condition. The samples were then placed in an HPLC autosampler maintained at 37° C. and samples were analyzed over a 24 h period. Prodrug remaining (%) was reported relative to the initial peak area (t=0 h). In cases where a conversion to parent half-life could be calculated, a t1/2 was generated. Confirmation of the conversion to parent from the prodrug was obtained by LCMS and HPLC analysis of the final timepoint samples.
Typical LC parameters are shown below: • HPLC System: HP1100 Series, Hewlett Packard., Heated autosampler • Analytical column: Synergi 4 u Hydro C18, 4.6 mm×5.0 cm, PHENOMENEX® • Column temperature: 40° C. • Autosampler temp: 37° C. • Flow rate: 1.0 mL/min • Injection Volume: 10 μL • Mobile Phase: A: Acetonitrile • B: 0.1% Phosphoric acid in water • Run Time: 14.0 minutes Typical LCMS parameters are shown below: • LC-MS System: Surveyor HPLC system, ThermoFinnigan LCQ Deca XP Max (Ion trap) • Analytical column: Synergi 4 u Hydro C18, 4.6 mm×5.0 cm, PHENOMENEX® • Column temperature: 40° C. • Autosampler temp: 22° C. • Flow rate: 1.0 mL/min • Injection Volume: 5 μL • Mobile Phase: A: 95% Acetonitrile/5% 20 mM Ammonium Acetate • B: 5% Acetonitrile/95% 20 mM Ammonium Acetate LCQ Parameters: • Sheath Flow Rate: 81.64 • Aux/Sweep Flow Rate: 19.01 • Current (uA): 10.89 • Voltage (kV): 5.00 • Capillary (C): 348.10 • Capillary Voltage (V): 30.44

[2] = potassium phosphate buffer, pH 6.5, aqueous buffer, read-out: Solubility (mg/mL) pH 6.5
[3] = sodium acetate buffer, pH 4, aqueous buffer, read-out: Solubility (mg/mL) pH 4.0
[4] = potassium phosphate buffer with 30% acetonitrile, pH 6.5, read-out: Stability (t1/2, h) pH 6.5 (converted)
[5] = sodium acetate buffer with 30% acetonitrile, pH 4, read-out: Stability (t1/2, h) pH 4.0 (converted)

Cc1cc(C)c(C(C)(C)CC(=O)OCN2C(=O)[C@@H](NC(=O)[C@H](CCC(F)(F)F)[C@H](CCC(F)(F)F)C(N)=O)N=C(c3ccccc3)c3ccccc32)c(OP(=O)(O)O)c1 [Example 3, (3-(((2R,3S)-3-Carbamoyl-6,6,6-trifluoro-2-(3,3,3-trifluoropropyl)hexanoyl)amino)-2-oxo-5-phenyl-2,3-dihydro-1H-1,4-benzodiazepin-1-yl)methyl 3-(2,4-dimethyl-6-(phosphonooxy)phenyl)-3-methylbutanoate]
solubility at 24 h [1, 2]: > 0.52 mg/mL
solubility at 24 h [1, 3]: > 0.28 mg/mL
half-life (Solution Stability Assay; [4]): > 500 h
half-life (Solution Stability Assay; [5]): > 500 h

CN1C(=O)[C@@H](NC(=O)[C@H](CCC(F)(F)F)[C@H](CCC(F)(F)F)C(=O)NCN2CCC(O)C2)N=C(c2ccccc2)c2ccccc21 (stereo partly drawn) [Example 20, (2S,3R)—N-((3-Hydroxy-1-pyrrolidinyl)methyl)-N′-((3S)-1-methyl-2-oxo-5-phenyl-2,3-dihydro-1H-1,4-benzodiazepin-3-yl)-2,3-bis(3,3,3-trifluoropropyl)succinamide]
solubility at 24 h [1, 2]: 0.39 mg/mL (≈ 595 µM)
solubility at 24 h [1, 3]: 0.43 mg/mL (≈ 656 µM)
half-life (Solution Stability Assay; [4]): 15 h
half-life (Solution Stability Assay; [5]): 97 h

CN(C)CCSNC(=O)[C@@H](CCC(F)(F)F)[C@@H](CCC(F)(F)F)C(=O)N[C@H]1N=C(c2ccccc2)c2ccccc2N(C)C1=O [Example 13, (2S,3R)—N-((2-(Dimethylamino)ethyl)sulfanyl)-N′-((3S)-1-methyl-2-oxo-5-phenyl-2,3-dihydro-1H-1,4-benzodiazepin-3-yl)-2,3-bis(3,3,3-trifluoropropyl)succinamide]
solubility at 24 h [1, 2]: 0.94 mg/mL (≈ 1420 µM)
solubility at 24 h [1, 3]: > 0.92 mg/mL
half-life (Solution Stability Assay; [4]): 108 h
half-life (Solution Stability Assay; [5]): 334 h

CN1C(=O)[C@@H](NC(=O)[C@H](CCC(F)(F)F)[C@H](CCC(F)(F)F)C(=O)NCN2CCCC2)N=C(c2ccccc2)c2ccccc21 [Example 22, (2R,3S)—N-((3S)-1-Methyl-2-oxo-5-phenyl-2,3-dihydro-1H-1,4-benzodiazepin-3-yl)-N′-(1-pyrrolidinylmethyl)-2,3-bis(3,3,3-trifluoropropyl)succinamide]
solubility at 24 h [1, 2]: 0.03 mg/mL (≈ 46.9 µM)
solubility at 24 h [1, 3]: > 0.39 mg/mL
half-life (Solution Stability Assay; [4]): 7 h

CN1C(=O)[C@@H](NC(=O)[C@H](CCC(F)(F)F)[C@H](CCC(F)(F)F)C(=O)NCN2CCC(O)CC2)N=C(c2ccccc2)c2ccccc21 [Example 19, (2S,3R)—N-((4-Hydroxy-1-piperidinyl)methyl)-N′-((3S)-1-methyl-2-oxo-5-phenyl-2,3-dihydro-1H-1,4-benzodiazepin-3-yl)-2,3-bis(3,3,3-trifluoropropyl)succinamide]
solubility at 24 h [1, 2]: > 1.42 mg/mL
solubility at 24 h [1, 3]: 0.97 mg/mL (≈ 1450 µM)
half-life (Solution Stability Assay; [4]): 56 h
half-life (Solution Stability Assay; [5]): > 500 h

CC(C)[C@H](N)C(=O)OCN1C(=O)[C@@H](NC(=O)[C@H](CCC(F)(F)F)[C@H](CCC(F)(F)F)C(N)=O)N=C(c2ccccc2)c2ccccc21 [Example 6, ((3S)-3-(((2R,3S)-3-Carbamoyl-6,6,6-trifluoro-2-(3,3,3-trifluoropropyl)hexanoyl)amino)-2-oxo-5-phenyl-2,3-dihydro-1H-1,4-benzodiazepin-1-yl)methyl L-valinate]
solubility at 24 h [1, 2]: 0.5 mg/mL (≈ 744 µM)
solubility at 24 h [1, 3]: 0.3 mg/mL (≈ 447 µM)
half-life (Solution Stability Assay; [4]): 41 h
half-life (Solution Stability Assay; [5]): > 500 h

COC(=O)[C@@H](N)CSNC(=O)[C@@H](CCC(F)(F)F)[C@@H](CCC(F)(F)F)C(=O)N[C@H]1N=C(c2ccccc2)c2ccccc2N(C)C1=O [Example 14, Methyl S-(((2S,3R)-6,6,6-trifluoro-3-(((3S)-1-methyl-2-oxo-5-phenyl-2,3-dihydro-1H-1,4-benzodiazepin-3-yl)carbamoyl)-2-(3,3,3-trifluoropropyl)hexanoyl)amino)-L-cysteinate]
solubility at 24 h [1, 2]: 0.02 mg/mL (≈ 29 µM)
solubility at 24 h [1, 3]: 0.42 mg/mL (≈ 609 µM)
half-life (Solution Stability Assay; [4]): 44 h
half-life (Solution Stability Assay; [5]): 73 h

CN1CCN(CNC(=O)[C@@H](CCC(F)(F)F)[C@@H](CCC(F)(F)F)C(=O)N[C@H]2N=C(c3ccccc3)c3ccccc3N(C)C2=O)CC1 [Example 15, (2R,3S)—N-((3S)-1-Methyl-2-oxo-5-phenyl-2,3-dihydro-1H-1,4-benzodiazepin-3-yl)-N′-((4-methyl-1-piperazinyl)methyl)-2,3-bis(3,3,3-trifluoropropyl)succinamide]
solubility at 24 h [1, 2]: > 0.41 mg/mL
solubility at 24 h [1, 3]: 0.27 mg/mL (≈ 404 µM)
half-life (Solution Stability Assay; [4]): > 500 h
half-life (Solution Stability Assay; [5]): > 500 h

NC(=O)[C@@H](CCC(F)(F)F)[C@@H](CCC(F)(F)F)C(=O)N[C@H]1N=C(c2ccccc2)c2ccccc2N(COC(=O)C2(N)CC2)C1=O [Example 7, ((3S)-3-(((2R,3S)-3-Carbamoyl-6,6,6-trifluoro-2-(3,3,3-trifluoropropyl)hexanoyl)amino)-2-oxo-5-phenyl-2,3-dihydro-1H-1,4-benzodiazepin-1-yl)methyl 1-aminocyclopropanecarboxylate]
solubility at 24 h [1, 2]: 2.09 mg/mL (≈ 3190 µM)
solubility at 24 h [1, 3]: 1.78 mg/mL (≈ 2720 µM)
half-life (Solution Stability Assay; [4]): > 500 h
half-life (Solution Stability Assay; [5]): > 500 h

N[C@@H](CSNC(=O)[C@@H](CCC(F)(F)F)[C@@H](CCC(F)(F)F)C(=O)N[C@H]1N=C(c2ccccc2)c2ccccc2NC1=O)C(=O)O [Example 9, S-(((2S,3R)-6,6,6-Trifluoro-3-(((3S)-2-oxo-5-phenyl-2,3-dihydro-1H-1,4-benzodiazepin-3-yl)carbamoyl)-2-(3,3,3-trifluoropropyl)hexanoyl)amino)-L-cysteine]
solubility at 24 h [1, 2]: 0.64 mg/mL (≈ 967 µM)
solubility at 24 h [1, 3]: 0.75 mg/mL (≈ 1130 µM)
half-life (Solution Stability Assay; [4]): 58 h
half-life (Solution Stability Assay; [5]): 335 h

CN1C(=O)[C@@H](NC(=O)[C@H](CCC(F)(F)F)[C@H](CCC(F)(F)F)C(=O)NCN2CCCCC2)N=C(c2ccccc2)c2ccccc21 [Example 16, (2R,3S)—N-((3S)-1-Methyl-2-oxo-5-phenyl-2,3-dihydro-1H-1,4-benzodiazepin-3-yl)-N′-(1-piperidinylmethyl)-2,3-bis(3,3,3-trifluoropropyl)succinamide]
solubility at 24 h [1, 2]: 0.01 mg/mL (≈ 15.3 µM)
solubility at 24 h [1, 3]: 0.23 mg/mL (≈ 352 µM)
half-life (Solution Stability Assay; [4]): 16 h
half-life (Solution Stability Assay; [5]): 250 h

NC(=O)[C@@H](CCC(F)(F)F)[C@@H](CCC(F)(F)F)C(=O)N[C@H]1N=C(c2ccccc2)c2ccccc2N(COC(=O)Cc2ccc(OP(=O)(O)O)cc2)C1=O [Example 1, ((3S)-3-(((2R,3S)-3-Carbamoyl-6,6,6-trifluoro-2-(3,3,3-trifluoropropyl)hexanoyl)amino)-2-oxo-5-phenyl-2,3-dihydro-1H-1,4-benzodiazepin-1-yl)methyl (4-(phosphonooxy)phenyl)acetate]
solubility at 24 h [1, 2]: > 1.22 mg/mL
solubility at 24 h [1, 3]: 0.01 mg/mL (≈ 12.7 µM)
half-life (Solution Stability Assay; [4]): > 500 h
half-life (Solution Stability Assay; [5]): > 500 h

CN1C(=O)[C@@H](NC(=O)[C@H](CCC(F)(F)F)[C@H](CCC(F)(F)F)C(=O)NCN2CCC(N)CC2)N=C(c2ccccc2)c2ccccc21 [Example 17, (2S,3R)—N-((4-Amino-1-piperidinyl)methyl)-N′-((3S)-1-methyl-2-oxo-5-phenyl-2,3-dihydro-1H-1,4-benzodiazepin-3-yl)-2,3-bis(3,3,3-trifluoropropyl)succinamide]
solubility at 24 h [1, 2]: > 1.9 mg/mL
solubility at 24 h [1, 3]: 0.56 mg/mL (≈ 837 µM)
half-life (Solution Stability Assay; [4]): 300 h
half-life (Solution Stability Assay; [5]): 250 h
